Where two headings read alike, the source gives them in different places. Marks after values point to notes of the source that are not given here.
What was measured:
[1] = test system: Salmonella typhimurium TA98; conditions: TA 98, + S9, positive control 2-anthramine 1.25 μg/plate
[2] = test system: Salmonella typhimurium TA100
[3] = test system: Salmonella typhimurium TA97a; conditions: TA 97a, + S9, positive control 2-anthramine 1.25 μg/plate
[4] = test system: Salmonella typhimurium TA97a; conditions: TA 97a, + S9, mutagen alone (Ctrol +), 2-AA 1.25 μg/plate
[5] = test system: V79 cells; experiment: Comet assay, genotoxicity in V79 cells; format: cell-based, Chinese hamster; set-up: Class 0 / Class 1 / Class 2 / Class 3: unit not given here; conditions: for Class 0 / Class 1 / Class 2 / Class 3 / Score: 3 h
Procedure: Chinese hamster lung fibroblasts (V79) were kindly supplied by Professor Cólus (Universidade Estadual de Londrina (UEL), Paraná, Brazil). Cells were maintained as monolayers in plastic culture flasks (25 cm^2) in HAM-F10 (Sigma-Aldrich) plus DMEM (Sigma-Aldrich, 1:1) culture medium supplemented with 10%; fetal bovine serum (Nutricell), antibiotics (0.01 mg mL^−1 streptomycin and 0.005 mg mL^−1 penicillin; Sigma-Aldrich) and 2.38 mg mL^−1 Hepes (Sigma-Aldrich), at 37°C in a BOD-type chamber. Under these conditions, the average cell cycle time was 12 h.
HK was first dissolved in a mixture of methanol (100 μL) and distilled water (900 μL). The final concentration of methanol in the culture was 0.1%;. The choice of concentrations was based on the results of previous experiments with HK [12]. In the experiments, 3 × 10^5 cells (V79) were seeded into tissue-culture flasks, incubated for two cycles (24 h) in complete HAM-F10/DMEM medium, washed with phosphate buffer saline (PBS), and then subjected to one of the following treatments, in serum-free medium, for 3 h. To assess genotoxicity, the cells were treated with each concentration of HK alone, while for antigenotoxicity, they were treated with the mutagen DXR (0.3 μM) in combination with each HK concentration. Positive (DXR) and negative controls were also included in the test. At the end of the treatment, the cells were washed with ice-cold PBS and trypsinized with 200 μL trypsin. After 3 min, the cells were gently resuspended in complete medium and 20 μL of the cell suspension was immediately used for the test.
The procedures described by Singh et al. were adopted, with minor modifications, as described in detail by Speit and Hartmann and reviewed by Burlinson et al.. Briefly, a microscope slide was covered with a base layer of 1.5%; normal-melting agarose (Invitrogen) and 20 μL of the test cells suspended in 120 μL 0.5%; low-melting agarose (Invitrogen) at 37°C was then spread over the base layer. A coverslip was added and the agarose allowed to solidify at 4°C for 15 min. Next, the coverslip was gently removed and the slides were immersed in freshly prepared lysing solution consisting of 89 mL stock solution (2.5 M NaCl, 100 mM EDTA, 10 mM Tris, pH 10.0, and 1%; sodium lauryl sarcosine), 10 mL DMSO and 1 mL Triton X-100, pH 10.0, at 4°C, for at least 20 h, protected from light. At the end of this period, the slides were transferred to an electrophoresis chamber containing a high pH (>13.0) buffer (300 mM NaOH, 1 mM EDTA) and incubated at 4°C for 20 min to allow the DNA to unwind. A current of 25 V (1.0 V cm^−1, 300 mA) was applied for 20 min. The slides were then submerged in a neutralization buffer (0.4 M Tris - HCl, pH 7.5) for 15 min, dried at room temperature and fixed in 100%; ethanol for 10 min.
The slides were stained with 100 μL ethidium bromide (20 μg ml^−1) and covered with a coverslip. All the slides in the experiment were coded before analysis. The stained nucleoids were immediately evaluated at 1000x magnification under a Nikon fluorescence microscope fitted with a 515–560 nm excitation filter and a 590 nm barrier filter.
For each treatment, the extent and distribution of DNA damage indicated by the comet assay were evaluated by examining 100 randomly selected and non-overlapping cells on the slides (i.e. 300 nucleoids per treatment). For each slide, the cells were visually scored and allocated to one of four classes (0, 1, 2 and 3), according to tail size, as follows: class 0, undamaged, no tail; class 1, a short tail whose length was smaller than the diameter of the comet head (nucleus); class 2, tail length between 1 and 2 times the diameter of the head; and class 3, maximally damaged: a long tail measuring more than twice the diameter of the head. The few comets containing no head and those with almost all DNA in the tail, or with a very wide tail, were excluded from the analysis since they may arise from dead cells. […]

[6] = test system: Salmonella typhimurium TA100; remark: listed apart in the source
[7] = DXR 0.3 μM alone (positive control)

Nc1ccc2cc3ccccc3cc2c1 [2-AA, 2-aminoanthracene, reference compound]
Number of revertants(M ± SD)/ plate [1]: 1567 ± 115^e revertants/plate
Number of revertants(M ± SD)/ plate ([2]; TA 100, + S9, positive control 2-anthramine 1.25 μg/plate): 1456 ± 78^e revertants/plate
Number of revertants(M ± SD)/ plate [3]: 1789 ± 89^e revertants/plate
Number of revertants(M ± SD)/ plate [4]: 1083 + 67 revertants/plate

COc1cccc2c1C(=O)c1c(O)c3c(c(O)c1C2=O)C[C@@](O)(C(=O)CO)C[C@@H]3O[C@H]1C[C@H](N)[C@H](O)[C@H](C)O1 [DXR, doxorubicin, reference compound]
Class 0 ([5]; DXR 0.3 μM + MeOH 0.1%): 46.3 ± 6.8
Class 1 ([5]; DXR 0.3 μM + MeOH 0.1%): 30.0 ± 6.0
Class 2 ([5]; DXR 0.3 μM + MeOH 0.1%): 16.3 ± 5.6
Class 3 ([5]; DXR 0.3 μM + MeOH 0.1%): 6.6 ± 3.0
Score ([5]; DXR 0.3 μM + MeOH 0.1%): 83.3 ± 14.5^a
Class 0 [5, 7]: 41.0 ± 12.0
Class 1 [5, 7]: 36.0 ± 12.7
Class 2 [5, 7]: 18.0 ± 2.0
Class 3 [5, 7]: 4.0 ± 2.5
Score [5, 7]: 86.0 ± 11.5^a
rate of DNA damage relative to the negative control ([5]; DXR 0.3 μM, V79 cells): significant increase in the rate of DNA damage

[N-]=[N+]=[N-].[Na+] [SA, sodium azide, reference compound]
Number of revertants(M ± SD)/ plate [2]: 1582 ± 98^c revertants/plate
Number of revertants(M ± SD)/ plate [6]: 1219 + 46 revertants/plate

aflatoxin B1 [AFB1, reference compound]
Number of revertants(M ± SD)/ plate [6]: 1607 + 79 revertants/plate

From publication PMC3545969, “Mutagenicity and antimutagenicity of (−)-hinokinin a trypanosomicidal compound measured by Salmonella microsome and comet assays” (BMC Complementary and Alternative Medicine, 2012)
